Experimental data published in paper PMC7127491 (Bioorganic & Medicinal Chemistry, 2008).
“Also recorded” adds a separate entry of the source.

Assays:
Type in all cases: cell-based
influenza A (H3N2) = experiment: microbe, parasite or virus in culture; conditions: H3N2, MDCK, read-out: EC50 against influenza A (H3N2)
HIV-1 = experiment: Anti-HIV-1 activity, virus-induced cytopathicity in CEM cells
HIV-2 = experiment: Anti-HIV-2 activity, virus-induced cytopathicity in CEM cells
[1] = system: normal diploid human fibroblasts (WI 38); experiment: Antiproliferation MTT assay
[2] = system: all evaluated tumour cell lines (L1210, Molt4/C8, CEM, HeLa, MCF-7, MiaPaCa-2, SW 620, Hep G2); experiment: Cytostatic activity over the whole panel of evaluated cell lines; conditions: read-out: IC50 range on all the evaluated tumour cell lines

Structure (SMILES): CCCCCCCCC#Cc1cn(C/C=C\CN2C(=O)c3ccccc3C2=O)c(=O)[nH]c1=O [Compound 2, (Z)-1-[4′-(N-Phthalimido)-2′-butenyl]-5-decynyluracil]
- EC50 (influenza A (H3N2)): 2.5 to 4 µM

Structure (SMILES): O=C1c2ccccc2C(=O)N1C/C=C\Cn1cc(C#CCCc2ccccc2)c(=O)[nH]c1=O [Compound 3, (Z)-1-[4′-(N-Phthalimido)-2′-butenyl]-5-(4″-phenylbutynyl)uracil]
- inhibitory activity against HIV-1, in words (HIV-1): marginal inhibitory activity; also recorded: slight activity
- inhibitory activity against HIV-2, in words (HIV-2): marginal inhibitory activity

Structure (SMILES): O=C1c2ccccc2C(=O)N1C/C=C\Cn1cc(C#Cc2ccc(Br)cc2)c(=O)[nH]c1=O [Compound 4, (Z)-1-[4′-(N-Phthalimido)-2′-butenyl]-5-(p-bromophenylethynyl)uracil]
- inhibitory activity against HIV-1, in words (HIV-1): marginal inhibitory activity; also recorded: slight activity
- inhibitory activity against HIV-2, in words (HIV-2): marginal inhibitory activity

Structure (SMILES): CCCCCc1ccc(C#Cc2cn(C/C=C\CN3C(=O)c4ccccc4C3=O)c(=O)[nH]c2=O)cc1 [Compound 7, (Z)-1-[4′-(N-Phthalimido)-2′-butenyl]-5-(p-pentylphenylethynyl)uracil]
- cytotoxicity to human normal fibroblasts (WI 38), in words [1]: no cytotoxicity

Structure (SMILES): CCCCCc1ccc(C#Cc2cn(C/C=C/CN3C(=O)c4ccccc4C3=O)c(=O)[nH]c2=O)cc1 [Compound 14, (E)-1-[4′-(N-Phthalimido)-2′-butenyl]-5-(p-pentylphenylethynyl)uracil]
- inhibitory activity against HIV-1, in words (HIV-1): marginal inhibitory activity; also recorded: moderate activity
- IC50 [2]: 4.3 to 39 µM
- inhibitory activity against HIV-2, in words (HIV-2): marginal inhibitory activity; also recorded: moderate activity
- cytotoxicity to human normal fibroblasts (WI 38), in words [1]: cytotoxic
